Usually IC50 stands for the point on the concentration scale where inhibition reaches its midpoint.

Data on nine compounds can be found in patent US20230233569A1 (Revolution Medicines, Inc., priority 2020, published 2023).

The subject of assay [1] is Capan-1 (K-Ras G12V). The assay can be described thus: CellTiter-Glo cell viability assay, 5-day treatment. It is filed as cell-based. The following applies: Homo sapiens, CAPAN-1, 120 h, 5-day treatment; read-out: Capan-1 Cell Viability assay data (K-Ras G12V, IC50). Put shortly:
(§1)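 Compounds were dispensed directly onto seeded cells and incubated for 5 days, then plates were equilibrated to room temperature for about 30 minutes before luminescence reading. Signals were expressed as percent of the mean DMSO control and fitted with a four-parameter logistic curve.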
On the technique in general: In ATP-based viability assays light output follows the ATP content of the culture.

The test system of assay [2] is NCI-H358 (K-Ras G12C). Described as above. Particulars: Homo sapiens, NCI-H358, 120 h, 5-day treatment; read-out: H358 Cell Viability assay data (K-Ras G12C, IC50). It is filed as cell-based. Put shortly: as §1
Assay [3] addresses NRAS Q61K (Homo sapiens, UniProt P01111+P62937, Q61K). The assay can be described thus: Disruption of BRAF RBD interaction with Ras (FRET / MOA assay, with Cyclophilin A). It is filed as biochemical. Particulars: NRAS Q61K; read-out: NRAS Q61K FRET data IC50. Put shortly:
(§2)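 TR-FRET in 25 mM HEPES pH 7.3, 100 mM NaCl, 5 mM MgCl2, 0.1% BSA: 25 μM Cyclophilin A, 12.5 nM His6-Ras-GMPPNP, 50 nM GST-BRAF RBD with compound (10-point 3-fold series from 30 μM), 3 h at 25° C. Anti-His Eu/anti-GST APC added, 1.5 h more; IC50 from decreased FRET ratio versus DMSO.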

For assay [4], the target named is NRAS WT (Homo sapiens, UniProt P01111+P62937). Described as above. The following applies: NRAS WT; read-out: NRAS WT FRET data IC50. Type of assay: biochemical. Summed up: as §2
Assay [5] concerns the target NRAS Q61R (Homo sapiens, UniProt P01111+P62937, Q61R). The assay is described as above. It is filed as biochemical. Particulars: NRAS Q61R; read-out: NRAS Q61R FRET data IC50. Summed up: as §2
For assay [6], the target named is KRAS Q61H (Homo sapiens, UniProt P01116+P62937, Q61H). The assay is described as above. Type of assay: biochemical. The following applies: KRAS Q61H; read-out: KRAS Q61H FRET data IC50. Put shortly: as §2
The target of assay [7] is KRAS WT (Homo sapiens, UniProt P01116+P62937). The assay is described as above. It is filed as biochemical. The following applies: KRAS WT; read-out: KRAS WT FRET data IC50. Summed up: (§3)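 TR-FRET readout: a drop in ratio relative to DMSO wells marks disruption of the K-Ras:BRAF RBD complex via compound-induced K-Ras–Cyclophilin A ternary complex. Dosing used ten 3-fold steps from 30 μM final, 3 h at 25 °C, then Eu-anti-His 10 nM plus APC-anti-GST 50 nM for another 1.5 h. Values are IC50s.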

For assay [8], the target named is KRAS G12V (Homo sapiens, UniProt P01116+P62937, G12V). The assay is described as above. Type of assay: biochemical. Particulars: KRAS G12V; read-out: KRAS G12V FRET data IC50. Put shortly:
as §3

In assay [9] the target is KRAS G12D (Homo sapiens, UniProt P01116+P62937, G12D). Described as above. It is filed as biochemical. Particulars: read-out: KRAS G12D FRET data, IC50. Summed up:
as §3

For assay [10], the target named is KRAS G12C (Homo sapiens, UniProt P01116+P62937, G12C). The assay is described as above. It is filed as biochemical. Particulars: read-out: KRAS G12C FRET data, IC50. Summed up: as §3
Assay [11] has as its target NRAS G12C (Homo sapiens, UniProt P01111+P62937, G12C). The description is as above. Type of assay: biochemical. The following applies: NRAS G12C; read-out: NRAS G12C FRET data IC50.
Assay [12] deals with KRAS G13C (Homo sapiens, UniProt P01116+P62937, G13C). Described as above. Type of assay: biochemical. The following applies: read-out: KRAS G13C FRET data, IC50. Summed up:
as §3

Assay [13] concerns the target KRAS G13D (Homo sapiens, UniProt P01116+P62937, G13D). The description is as above. Type of assay: biochemical. The following applies: KRAS G13D; read-out: KRAS G13D FRET data IC50. Summed up:
as §3

The target of assay [14] is KRAS G12S (Homo sapiens, UniProt P01116+P62937, G12S). The description is as above. Type of assay: biochemical. The following applies: read-out: KRAS G12S FRET data, IC50. Summed up: as §3

SMILES strings stand for the structures.

KRAS G13C, sequence (P01116 1-169 isoform P01116-2 G13C): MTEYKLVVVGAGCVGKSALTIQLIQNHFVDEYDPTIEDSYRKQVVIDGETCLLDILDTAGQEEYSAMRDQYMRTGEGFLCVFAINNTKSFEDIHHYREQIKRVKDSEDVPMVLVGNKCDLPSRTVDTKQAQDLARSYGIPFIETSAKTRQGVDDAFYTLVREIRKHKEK
KRAS G13C, sequence (P62937 whole entry): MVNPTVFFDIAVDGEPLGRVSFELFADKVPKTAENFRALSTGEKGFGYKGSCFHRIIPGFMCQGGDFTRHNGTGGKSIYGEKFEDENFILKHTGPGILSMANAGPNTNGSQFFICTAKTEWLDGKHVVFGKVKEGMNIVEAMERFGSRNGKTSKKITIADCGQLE
NRAS WT, sequence (P01111 whole entry): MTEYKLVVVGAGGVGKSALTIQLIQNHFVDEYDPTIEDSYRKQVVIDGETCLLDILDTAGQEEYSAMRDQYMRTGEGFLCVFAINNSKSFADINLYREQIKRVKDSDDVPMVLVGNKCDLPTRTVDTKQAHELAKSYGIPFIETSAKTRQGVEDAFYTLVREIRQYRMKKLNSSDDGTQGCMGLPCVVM
NRAS WT, sequence (P62937 whole entry): as the sequence (P62937 whole entry) above
KRAS G12V, sequence (P01116 1-169 isoform P01116-2 G12V limits assumed): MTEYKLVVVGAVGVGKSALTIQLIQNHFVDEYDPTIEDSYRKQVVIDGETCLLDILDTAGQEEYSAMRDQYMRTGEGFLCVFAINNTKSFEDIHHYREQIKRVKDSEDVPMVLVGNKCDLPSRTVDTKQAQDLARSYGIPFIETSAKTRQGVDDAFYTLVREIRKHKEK
KRAS G12V, sequence (P62937 whole entry): as the sequence (P62937 whole entry) above
KRAS G12C, sequence (P01116 1-169 isoform P01116-2 G12C): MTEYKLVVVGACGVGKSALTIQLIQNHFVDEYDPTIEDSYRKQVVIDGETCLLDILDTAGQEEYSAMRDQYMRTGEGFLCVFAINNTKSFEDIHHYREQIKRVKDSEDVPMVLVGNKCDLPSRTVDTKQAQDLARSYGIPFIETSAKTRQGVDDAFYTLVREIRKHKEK
KRAS G12C, sequence (P62937 whole entry): as the sequence (P62937 whole entry) above
KRAS G12S, sequence (P01116 1-169 isoform P01116-2 G12S limits assumed): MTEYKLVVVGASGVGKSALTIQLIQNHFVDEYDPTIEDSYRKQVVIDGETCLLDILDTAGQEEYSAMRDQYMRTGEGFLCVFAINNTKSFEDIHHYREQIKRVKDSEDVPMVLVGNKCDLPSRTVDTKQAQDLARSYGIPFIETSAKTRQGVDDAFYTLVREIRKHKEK
KRAS G12S, sequence (P62937 whole entry): as the sequence (P62937 whole entry) above
NRAS Q61K, sequence (P01111 whole entry Q61K): as the sequence (P01111 whole entry) above, with Q61K counted along it
NRAS Q61K, sequence (P62937 whole entry): as the sequence (P62937 whole entry) above
KRAS WT, sequence (P01116 1-169 isoform P01116-2 limits assumed): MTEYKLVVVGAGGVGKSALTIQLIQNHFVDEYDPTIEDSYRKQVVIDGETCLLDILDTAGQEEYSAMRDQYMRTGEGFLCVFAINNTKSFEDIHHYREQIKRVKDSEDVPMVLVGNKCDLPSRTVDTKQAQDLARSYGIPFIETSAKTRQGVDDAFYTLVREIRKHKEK
KRAS WT, sequence (P62937 whole entry): as the sequence (P62937 whole entry) above
KRAS G13D, sequence (P01116 1-169 isoform P01116-2 G13D limits assumed): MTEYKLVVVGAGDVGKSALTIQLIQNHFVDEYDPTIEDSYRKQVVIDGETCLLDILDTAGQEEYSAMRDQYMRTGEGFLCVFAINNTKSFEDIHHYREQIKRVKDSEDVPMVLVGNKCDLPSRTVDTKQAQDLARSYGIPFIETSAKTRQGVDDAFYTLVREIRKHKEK
KRAS G13D, sequence (P62937 whole entry): as the sequence (P62937 whole entry) above
KRAS Q61H, sequence (P01116 1-169 isoform P01116-2 Q61H limits assumed): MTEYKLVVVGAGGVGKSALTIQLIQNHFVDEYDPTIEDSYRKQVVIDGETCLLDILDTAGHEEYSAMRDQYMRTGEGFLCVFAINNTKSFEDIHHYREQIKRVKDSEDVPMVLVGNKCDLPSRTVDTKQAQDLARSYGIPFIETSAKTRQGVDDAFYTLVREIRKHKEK
KRAS Q61H, sequence (P62937 whole entry): as the sequence (P62937 whole entry) above
NRAS G12C, sequence (P01111 whole entry G12C): as the sequence (P01111 whole entry) above, with G12C counted along it
NRAS G12C, sequence (P62937 whole entry): as the sequence (P62937 whole entry) above
KRAS G12D, sequence (P01116 1-169 isoform P01116-2 G12D limits assumed): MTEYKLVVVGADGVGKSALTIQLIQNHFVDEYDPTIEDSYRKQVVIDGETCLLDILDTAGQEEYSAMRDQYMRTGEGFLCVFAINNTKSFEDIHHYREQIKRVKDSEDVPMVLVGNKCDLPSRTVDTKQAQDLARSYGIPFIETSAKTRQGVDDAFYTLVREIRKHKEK
KRAS G12D, sequence (P62937 whole entry): as the sequence (P62937 whole entry) above
NRAS Q61R, sequence (P01111 whole entry Q61R): as the sequence (P01111 whole entry) above, with Q61R counted along it
NRAS Q61R, sequence (P62937 whole entry): as the sequence (P62937 whole entry) above

Consider `CCn1c(-c2cccnc2[C@H](C)OC)c2c3cc(ccc31)-c1csc(n1)C[C@H](NC(=O)[C@H]1C[C@@H]1C)C(=O)N1CCC[C@H](N1)C(=O)OCC(C)(C)C2` [Example A286, (1S,2S)—N-((6^3S,4S,Z)-1^1-ethyl-1^2-(2-((S)-1-methoxyethyl)pyridin-3-yl)-10,10-dimethyl-5,7-dioxo-6^1,6^2,6^3,6^4,6^5,6^6-hexahydro-1^1H-8-oxa-2(4,2)-thiazola-1(5,3)-indola-6(1,3)-pyridazinacycloundecaphane-4-yl)-2-methylcyclopropane-1-carboxamide], for which the IC50 in assay [1] lay within 100 to 1000 nM; in assay [2], 10 to 100 nM; in [3], 100 to 1000 nM; in assay [4], 100 to 1000 nM; in assay [5], 100 to 1000 nM; in assay [6] it was 100 to 1000 nM. Further, the IC50 in assay [7], in assay [8], in assay [9], in assay [10], in assay [11] and in assay [12] was 100 to 1000 nM each time. Moreover, the IC50 in assay [13] and in assay [14] was 100 to 1000 nM throughout.
In the case of `CCn1c(-c2cccnc2[C@H](C)OC)c2c3cc(ccc31)-c1cc(O)cc(c1)C[C@H](NC(=O)[C@H](C(C)C)N(C)C(=O)[C@H]1C[C@@H]1C)C(=O)N1CCC[C@H](N1)C(=O)OCC(C)(C)C2` [Example A287], the IC50 fell in the range of 100 to 1000 nM in assay [1]; 100 to 1000 nM in assay [2]; 100 to 1000 nM in assay [3]; 10 to 100 nM in assay [4]; 100 to 1000 nM in assay [5]; 10 to 100 nM in assay [6]. The IC50 was in the range of 10 to 100 nM in [7]; 100 to 1000 nM in assay [8]; 100 to 1000 nM in assay [9]; 100 to 1000 nM in [10]; 100 to 1000 nM in [11]; 100 to 1000 nM in assay [12]. For the same compound, the IC50 in assay [13] and in [14] was 100 to 1000 nM throughout.
Turning to `CCn1c(-c2cccnc2[C@H](C)OC)c2c3cc(ccc31)-c1csc(n1)C[C@H](NC(=O)[C@H](C(C)C)N(C)C(=O)N1CC(n3nc(C)cc3C)C1)C(=O)N1CCC[C@H](N1)C(=O)OCC(C)(C)C2` [Example A297], the IC50 fell in the range of 100 to 1000 nM in assay [1]; 10 to 100 nM in assay [2]; 100 to 1000 nM in [3]; 100 to 1000 nM in assay [4]; 100 to 1000 nM in assay [5]; 100 to 1000 nM in [6]. The IC50 in assay [7] lay within 100 to 1000 nM; in [8], 100 to 1000 nM; in assay [9], 1000 to 10000 nM; in assay [10] it was 100 to 1000 nM; in [11], 100 to 1000 nM; in assay [12], 100 to 1000 nM. In addition, the IC50 in assay [13] was in the range of 1000 to 10000 nM; in assay [14] it was 100 to 1000 nM.
On to `CCn1c(-c2cccnc2[C@H](C)OC)c2c3cc(ccc31)-c1csc(n1)C[C@H](NC(=O)[C@H](C(C)C)N(C)C(=O)N1CC(C)(OC)C1)C(=O)N1CCC[C@H](N1)C(=O)OCC(C)(C)C2` [Example A299], for which the IC50 fell in the range of 100 to 1000 nM in [1]; 10 to 100 nM in assay [2]; 100 to 1000 nM in [3]; 100 to 1000 nM in [4]; 100 to 1000 nM in assay [5]; 100 to 1000 nM in assay [6]. For the same compound, the IC50 in assay [7] fell in the range of 100 to 1000 nM; in assay [8], 1000 to 10000 nM; in [9] it was 1000 to 10000 nM; in [10], 100 to 1000 nM; in [11], 100 to 1000 nM; in assay [12], 1000 to 10000 nM. The IC50 in [13] and in assay [14] was 1000 to 10000 nM throughout.
For `CCn1c(-c2cccnc2[C@H](C)OC)c2c3cc(ccc31)-c1csc(n1)C[C@H](NC(=O)C1(F)COC1)C(=O)N1CCC[C@H](N1)C(=O)OCC(C)(C)C2` [Example A320], the IC50 in [1] was in the range of 100 to 1000 nM; in assay [2], 1000 to 10000 nM; in [3], 100 to 1000 nM; in assay [4] it was 100 to 1000 nM; in assay [5], 1000 to 10000 nM; in assay [6], 100 to 1000 nM. In addition, the IC50 was 100 to 1000 nM in assay [7]; 100 to 1000 nM in assay [8]; 1000 to 10000 nM in [9]; 100 to 1000 nM in assay [10]; 100 to 1000 nM in assay [11]; 100 to 1000 nM in assay [12]. The IC50 in [13] fell in the range of 1000 to 10000 nM; in [14], 100 to 1000 nM.
For the compound `CCn1c(-c2cccnc2[C@H](C)OC)c2c3cc(ccc31)-c1csc(n1)C[C@H](NC(=O)[C@@H](OC(=O)N1CC(OC)C1)C(C)C)C(=O)N1CCC[C@H](N1)C(=O)OCC(C)(C)C2` [Example A354], the IC50 in [1], in assay [2], in assay [3], in [4], in assay [5] and in assay [6] was 100 to 1000 nM throughout. Also, the IC50 is 100 to 1000 nM in assay [7]; 100 to 1000 nM in [8]; 1000 to 10000 nM in assay [9]; 100 to 1000 nM in [10]; 100 to 1000 nM in assay [11]; 100 to 1000 nM in assay [12]. For the same compound, the IC50 fell in the range of 1000 to 10000 nM in assay [13] and 100 to 1000 nM in [14].
Regarding `CCn1c(-c2cccnc2[C@H](C)OC)c2c3cc(ccc31)-c1csc(n1)C[C@H](NC(=O)[C@H]1CCO1)C(=O)N1CCC[C@H](N1)C(=O)OCC(C)(C)C2` [Example A360], the IC50 in [1] was 100 to 1000 nM; in assay [2], 100 to 1000 nM; in assay [3], 100 to 1000 nM; in [4], 100 to 1000 nM; in [5] it was 1000 to 10000 nM; in [6] it was 100 to 1000 nM. For the same compound, the half-inhibitory concentration (IC50) lay in the range of 100 to 1000 nM in assay [7]; 100 to 1000 nM in assay [8]; 1000 to 10000 nM in assay [9]; 100 to 1000 nM in assay [10]; 100 to 1000 nM in assay [11]; 100 to 1000 nM in assay [12]. The IC50 in [13] is 1000 to 10000 nM; in assay [14], 100 to 1000 nM.
As to `CCn1c(-c2cccnc2[C@H](C)OC)c2c3cc(ccc31)-c1csc(n1)C[C@H](NC(=O)C1CCC1)C(=O)N1CCC[C@H](N1)C(=O)OCC(C)(C)C2` [Example A369], the IC50 in assay [1], in [2], in assay [3], in assay [4], in [5] and in [6] was 100 to 1000 nM each time. Besides, the half-inhibitory concentration (IC50) in assay [7] lay in the range of 100 to 1000 nM; in assay [8], 100 to 1000 nM; in assay [9], 1000 to 10000 nM; in assay [10] it was 100 to 1000 nM; in [11], 100 to 1000 nM; in [12], 100 to 1000 nM. Besides, the IC50 in [13] and in assay [14] was 100 to 1000 nM in each case.
On to `CCn1c(-c2cccnc2[C@H](C)OC)c2c3cc(ccc31)-c1csc(n1)C[C@H](NC(=O)[C@H](C(C)C)N1CCN(C)C1=O)C(=O)N1CCC[C@H](N1)C(=O)OCC(C)(C)C2` [Example A389], for which the IC50 in assay [1] lay in the range of 10 to 100 nM; in assay [2], 10 to 100 nM; in assay [3], 100 to 1000 nM; in assay [4], 1000 to 10000 nM; in [5], 1000 to 10000 nM; in [6], 100 to 1000 nM. For the same compound, the IC50 is 1000 to 10000 nM in assay [7]; 1000 to 10000 nM in assay [8]; 1000 to 10000 nM in [9]; 100 to 1000 nM in assay [10]; 100 to 1000 nM in [11]; 1000 to 10000 nM in assay [12]. Further, the IC50 in assay [13] and in [14] was 1000 to 10000 nM throughout.
